Experimental data published in PMC10552397 (Cell Communication and Signaling : CCS, 2023).
“And” between values parts separate entries of the source, which are not always exact repeats. Equal values may be shown once.

Biological target: T1, proteins of HeLa wt cells (Homo sapiens, UniProt P30837)
T1 sequence (P30837 18-517): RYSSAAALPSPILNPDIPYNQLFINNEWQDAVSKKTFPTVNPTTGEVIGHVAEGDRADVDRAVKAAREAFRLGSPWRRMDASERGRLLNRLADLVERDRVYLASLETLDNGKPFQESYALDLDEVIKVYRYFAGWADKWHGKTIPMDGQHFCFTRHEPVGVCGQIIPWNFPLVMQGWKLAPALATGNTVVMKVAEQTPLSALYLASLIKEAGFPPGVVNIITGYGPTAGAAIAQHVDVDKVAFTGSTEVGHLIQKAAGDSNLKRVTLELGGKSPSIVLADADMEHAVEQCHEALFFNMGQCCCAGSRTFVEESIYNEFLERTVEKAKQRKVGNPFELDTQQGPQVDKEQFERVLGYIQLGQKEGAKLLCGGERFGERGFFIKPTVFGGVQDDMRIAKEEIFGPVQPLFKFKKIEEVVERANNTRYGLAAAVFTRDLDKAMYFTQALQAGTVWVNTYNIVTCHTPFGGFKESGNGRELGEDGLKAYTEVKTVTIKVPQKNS
Test: biochemical
Conditions: for normalized.Reporter.intensity: single replicates n1-n3
Protocol: Adherent cells were washed in the dish once with DPBS and harvested by Trypsin–EDTA (0.25%, Thermo Fisher Scientific, Waltham, MA, USA, #25,200,056) treatment. After addition of 35 mL DPBS, the cells were pelleted by centrifugation (300 rcf, 5 min, 4 °C), and washed twice by re-suspending and pelleting using 45 mL and 1 mL DPBS, respectively, to remove excess trypsin and for transfer into pre-weighed 2 mL Eppendorf tubes to determine the cell pellet wet weights as quality check after centrifugation (300 rcf, 5 min, 4 °C) and complete removal of the supernatant. Cells for TPP-TR were resuspended using 1 mL, and cells for TPP-CCR were resuspended using 0.4 mL ice-cold DPBS, respectively, supplemented with protease inhibitor cocktail (Roche, Basel, Switzerland, #5,892,791,001). […] Cell suspensions were shortly centrifuged (1 s or less) using a benchtop centrifuge to release trapped air and to achieve an even liquid level without pelleting the cells. The samples were then temperature treated by a 7 min pre-incubation at RT, 3 min temperature treatment in the PCR cycler (DNA Engine Tetrad 2, lid temperature 70 °C) at different temperatures (37 °C or 50 °C for TPP-CCR or the temperatures given in Table 2 for TPP-TR) and a 3 min post-incubation at RT in a metal heating block for uniform heat dissipation.
After temperature treatment, samples were supplemented with lysis buffer (final concentrations: 0.36 U/µL benzonase, 1.5 mM MgCl2, 1 mM Na3VO4, 10 mM NaF, 2.5 mM Na4P2O7, 0.8% w/v NP-40) for 1 h on ice. The lysates were cleared from cell debris as well as denatured and precipitated proteins by centrifugation at 20,000 rcf and 4 °C for 30 min. The total protein concentration of the resulting cell extracts containing the fraction of soluble, non-denatured proteins was determined (Pierce 660 nm Protein Assay, BSA as standard). Cell extracts were shock frozen in liquid nitrogen and stored at -80 °C. The three replicates for TPP-TR and TPP-CCR were prepared on consecutive days, respectively. The two (37 °C or 50 °C) x ten (concentrations) x three (replicates) = 60 TPP-CCR samples and two (treatment and control) x ten (temperatures) x three (replicates) = 60 TPP-TR samples were analyzed by LC–MS/MS. GRASP55 was additionally quantified from the TPP-TR samples by immunoblotting as described in the respective section.
For TPP-CCR, SP3 was performed as described with slight modifications to the original protocol using on average 5 µg total protein per sample and resulting in theoretically 5 µg peptides in 22 µL 50 mM triethylammonium bicarbonate per sample. For each of the two (treatment and control) x three (replicates) = six TPP-TR temperature treatment sample sets, the same volume for each of the ten temperature samples was used for SP3 processing, thus, maintaining the information about the temperature dependent non-denatured protein content. This volume was calculated such that the lowest two temperature samples (36.5 °C and 41.2 °C) contained 10 µg total protein on average. The samples were diluted using SDS containing buffer (20 µL final, final concentrations: 7.5% glycerol, 3% SDS, 37.5 mM Tris/HCl pH 7.0) and the proteins were reduced, alkylated, and precipitated on the solid phase as described using adjusted volumes (2 × due to processing 10 µg instead of 5 µg). Volumes for washing of the aggregated proteins on the solid phase and for tryptic digestion were kept unchanged, however, to maintain the maximal total protein to trypsin/Lys-C ratio at 50:1 in the two rounds of digestion (13 h and 4 h), respectively, 2 × 0.2 µg trypsin/Lys-C was used per sample, theoretically resulting in at most about 10 µg peptides in 22 µL 50 mM triethylammonium bicarbonate.

CCCCCC1=C/C(=C/c2[nH]c(-c3ccc[nH]3)cc2OC)N=C1C [Prodigiosin, prodigiosin]
EC50: 4.37 nM | diff pseudoR2(50-37°C) (ALDH1B1): 0.88 | pseudoR2 (dose response curve fit, 37°C) (ALDH1B1, 37°C): 0.0136 | normalized.Reporter.intensity (ALDH1B1, 37°C, 0.0976562 nM prodigiosin): -0.04 and -1.95 and 1.19 | normalized.Reporter.intensity (ALDH1B1, 37°C, 0.390625 nM prodigiosin): 0.86 and 1.70 and 1.19 | normalized.Reporter.intensity (ALDH1B1, 37°C, 1.5625 nM prodigiosin): 1.45 and -0.51 and 0.96 | normalized.Reporter.intensity (ALDH1B1, 37°C, 6.25 nM prodigiosin): 2.17 and -0.34 and 2.41 | normalized.Reporter.intensity (ALDH1B1, 37°C, 25 nM prodigiosin): 1.79 and 0.42 and 0.87 | normalized.Reporter.intensity (ALDH1B1, 37°C, 100 nM prodigiosin): -0.83 and -1.09 and 2.36 | normalized.Reporter.intensity (ALDH1B1, 37°C, 400 nM prodigiosin): -1.07 and -1.13 and 1.65 | normalized.Reporter.intensity (ALDH1B1, 37°C, 1600 nM prodigiosin): -1.06 and 0.17 and 2.67 | normalized.Reporter.intensity (ALDH1B1, 37°C, 6400 nM prodigiosin): -0.10 and 1.67 and -1.95 | H (dose response curve fit parameters, 37°C) (ALDH1B1, 37°C, Hill slope of fit): 1.47e-8 | pseudoR2 (dose response curve fit, 50°C) (ALDH1B1, 50°C): 0.89 | normalized.Reporter.intensity (ALDH1B1, 50°C, 0.0976562 nM prodigiosin): 0.23 and -0.0339 and 0.17 | normalized.Reporter.intensity (ALDH1B1, 50°C, 0.390625 nM prodigiosin): 0.32 and 0.04 and 0.17 | normalized.Reporter.intensity (ALDH1B1, 50°C, 1.5625 nM prodigiosin): 0.40 and 0.42 and 0.21 | normalized.Reporter.intensity (ALDH1B1, 50°C, 6.25 nM prodigiosin): 0.69 and 0.56 and 0.41 | normalized.Reporter.intensity (ALDH1B1, 50°C, 25 nM prodigiosin): 0.66 and 0.74 and 0.67 | normalized.Reporter.intensity (ALDH1B1, 50°C, 100 nM prodigiosin): 1.06 and 0.92 and 1.01 | normalized.Reporter.intensity (ALDH1B1, 50°C, 400 nM prodigiosin): 0.70 and 0.97 (2×) | normalized.Reporter.intensity (ALDH1B1, 50°C, 1600 nM prodigiosin): 0.78 and 0.95 and 0.92 | normalized.Reporter.intensity (ALDH1B1, 50°C, 6400 nM prodigiosin): 1.11 and 0.90 and 1.01 | H (dose response curve fit parameters, 50°C) (ALDH1B1, 50°C, Hill slope of fit): 0.60
